Source: patent publication US8426358B2, “Methods for treating atherosclerosis” (Amgen Inc., priority 2006, dated 2013)
Residue numbers refer to the chain shown, from its start.

Assays:
LCAT = assay: Plasma LCAT activity assay in LCAT-deficient (lcat -/-) plasma samples; type: biochemical; details: lcat -/- mutant mouse plasma, in the presence or absence of compound
Protocol: (§1) Activity of the modified LCAT of the invention and activities of compounds of the invention were determined by measuring change of the rate of conversion of ^3H-labeled cholesterol to cholesteryl ester (CE). In the plasma LCAT activity assay, human plasma samples were equilibrated with a trace amount of radiolabeled cholesterol at 4° C. and the rate of cholesterol esterification was measured by TLC analysis after incubation at 37° C. (Dobiasova, supra). EC50 represents a compound concentration achieving 50% of maximal activation of LCAT-mediated cholesterol esterification. Results presented in FIG. 2(A) confirm activity and specificity of the compounds of the invention on LCAT enzyme. This experiment studied the effect of Compound A in LCAT-deficient plasma samples obtained from lcat mutant mice. Ng et al. (1997) J. Biol. Chem. 272:1 5777-81.

LCAT mutant H377A = molecular target: T1, LCAT mutant H377A (Homo sapiens, UniProt P04180, H401A); assay: Activity of loss-of-function LCAT mutant H377A with or without compound; type: biochemical; details: nonfunctional enzyme
T1 construct: full-length human LCAT cDNA was isolated from normal human liver cDNA library; FLAG (C); His (C); made in house; host or cells: CHO cells, secreted into serum-free medium
T1 sequence (P04180 25-440 H401A): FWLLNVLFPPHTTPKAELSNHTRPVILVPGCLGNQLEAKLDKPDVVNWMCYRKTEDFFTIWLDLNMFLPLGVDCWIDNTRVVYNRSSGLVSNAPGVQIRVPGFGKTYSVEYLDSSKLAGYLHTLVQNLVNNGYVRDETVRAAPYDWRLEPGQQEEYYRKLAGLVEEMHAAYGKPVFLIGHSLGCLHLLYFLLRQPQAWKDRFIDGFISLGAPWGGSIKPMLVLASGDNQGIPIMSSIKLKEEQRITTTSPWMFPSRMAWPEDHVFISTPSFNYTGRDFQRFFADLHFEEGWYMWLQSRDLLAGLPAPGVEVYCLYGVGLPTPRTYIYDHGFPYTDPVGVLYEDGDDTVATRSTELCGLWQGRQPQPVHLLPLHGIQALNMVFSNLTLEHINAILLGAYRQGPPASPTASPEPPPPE
From the text: (§2) For measuring compound activity using apoAI-liposome assay format, full-length human LCAT cDNA was isolated from normal human liver cDNA library (BioChain, Hayward, Calif.) with standard protocol and cloned into a pCMV-Flag vector (See Example 18). Recombinant LCAT was expressed in CHO cells and the enzyme secreted from stably transfected cells was harvested in serum-free culture medium. Recombinant LCAT identity was confirmed with anti-human LCAT and anti-Flag antibodies. The activity of recombinant LCAT enzyme was determined using apoAI-liposome substrates prepared by the standard cholate-dialysis procedure (Chen et al. (1982) J. Lipid Res. 23: 680-691. The initial mixture contained egg PC/^3H-unesterfied cholesterol/human apoAI (molar ratio of 250:12.5:0.8). After dialysis the proteoliposomes were incorporated with recombinant LCAT protein. LCAT activity was determined by measuring the conversion of radiolabeled cholesterol to cholesteryl ester and expressed in nmol CE/mL per hour.
(§3) Results summarized in FIG. 2(B) illustrate the mechanism of action of compounds of the invention on LCAT enzyme. Two loss-of-function LCAT mutants, H377A and S181A were generated, in which the critical catalytic triad of the enzyme was destroyed as described in Francone et al. (1991) Biochemistry 30: 10074-77; Peelman et al. (1998) Protein Sci. 7: 587-599; and Peelman et al. (2000) Curr. Opin. Lipidol. […]

LCAT mutant S181A = molecular target: T2, LCAT mutant S181A (Homo sapiens, UniProt P04180, S205A); assay: Activity of loss-of-function LCAT mutant S181A with or without compound; type: biochemical; details: nonfunctional enzyme
T2 construct: full-length human LCAT cDNA was isolated from normal human liver cDNA library; FLAG (C); His (C); made in house; host or cells: CHO cells, secreted into serum-free medium
T2 sequence (P04180 25-440 S205A): T1 sequence (P04180 25-440 H401A) with S181A, A377H
From the text: as §2, §3

LCAT C184A mutant = molecular target: T3, LCAT C184A mutant (Homo sapiens, UniProt P04180, C208A); assay: Activation of recombinant LCAT C184A mutant; type: biochemical; details: recombinant protein
T3 construct: full-length human LCAT cDNA was isolated from normal human liver cDNA library; FLAG (C); His (C); made in house; host or cells: CHO cells, secreted into serum-free medium
T3 sequence (P04180 25-440 C208A): T1 sequence (P04180 25-440 H401A) with C184A, A377H
From the text: as §2, §3

LCAT C31A mutant = molecular target: T4, LCAT C31A mutant (Homo sapiens, UniProt P04180, C55A); assay: Activation of recombinant LCAT C31A mutant; type: biochemical; details: recombinant protein
T4 construct: full-length human LCAT cDNA was isolated from normal human liver cDNA library; FLAG (C); His (C); made in house; host or cells: CHO cells, secreted into serum-free medium
T4 sequence (P04180 25-440 C55A): T1 sequence (P04180 25-440 H401A) with C31A, A377H
From the text: as §2, §3

LCAT enzyme = molecular target: T5, LCAT enzyme (Mus musculus, UniProt P16301); assay: Plasma LCAT activity after IP dosing of BALB/c mice; type: in vivo; details: male, DEPG vehicle, FIG. 3
T5 construct: from tissue; host or cells: plasma of BALB/c mice dosed IP
T5 sequence (P16301 25-438): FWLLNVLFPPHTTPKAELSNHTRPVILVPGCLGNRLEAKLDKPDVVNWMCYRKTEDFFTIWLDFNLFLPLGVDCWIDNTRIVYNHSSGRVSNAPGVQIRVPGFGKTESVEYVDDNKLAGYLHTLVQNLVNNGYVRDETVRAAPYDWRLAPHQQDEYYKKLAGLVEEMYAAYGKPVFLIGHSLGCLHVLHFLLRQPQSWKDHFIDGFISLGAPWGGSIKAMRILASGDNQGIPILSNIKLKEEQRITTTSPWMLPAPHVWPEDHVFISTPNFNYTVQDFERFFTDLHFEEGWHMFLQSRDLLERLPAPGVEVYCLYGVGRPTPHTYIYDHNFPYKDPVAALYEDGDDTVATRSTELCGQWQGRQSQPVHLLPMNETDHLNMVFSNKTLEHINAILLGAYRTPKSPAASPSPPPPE
Protocol: as §1, with “esterification.” for “esterification. Results presented in FIG. 2(A) confirm activity and specificity of the compounds of the invention on LCAT enzyme. This experiment studied the effect of Compound A in LCAT-deficient plasma samples obtained from lcat mutant mice. Ng et al. (1997) J. Biol. Chem. 272:1 5777-81.”
(§4) Rodents used for assessing the in vivo effects of the compounds of the invention include BALB/c mice, CD1 mice, and Syrian hamsters of wild type fed with normal chew. These animals were treated with either vehicle or Compound A (3-(5-ethylthio)-1,3,4-thiadiazol-2-ylthio)pyrazine-2-carbonitrile) by IP injection. At time points (see Figures) after compound administration, blood samples were collected, plasma was immediately separated, and plasma levels of lipids, lipoprotein and LCAT activity were determined.
Briefly, BALB/c mice (male, 7 weeks old) were treated with either vehicle or Compound A by intra-peritoneal (IP) in the indicated doses. Animals were fed normal chow diet. […]

[1] = Plasma HDL cholesterol in CD1 mice after IP dosing; type: in vivo; details: IP 20 mg/kg, one dose per day, 4 days, FIG. 4
Protocol: as §4
CD1 male three month old mice were treated with either vehicle (control) or with Compound A by IP injection (20 mg/kg, one dose per day, 4 days, n=8). Plasma samples were collected and HDL cholesterol concentrations were determined standard reagents and assay protocol using clinical analyzer (Infinity).

[2] = Plasma TC, HDL and LpB cholesterol in Syrian hamsters after IP dosing; type: in vivo; details: IP 20 mg/kg, one dose per day, 4 days, FIG. 6
Protocol: as §4
Hamsters (Syrian, male, 12 weeks old, n=6 per group) were treated with either vehicle (control) or Compound A via IP administration (20 mg/kg, one dose per day, 4 days). Plasma samples were collected and concentrations of total cholesterol (TC), panel B, and HDL cholesterol (panel A) were measured. LpB cholesterol contents were obtained by subtracting HDL from TC (panel C).

[3] = FPLC elution profiles of pooled hamster plasma (cholesterol, triglyceride); type: in vivo; details: hamsters, IP 20 mg/kg/day, 4 days, FIG. 7
Protocol: Hamsters (n=6) were treated with either vehicle (control), or Compound A via IP administration (20 mg/kg/day, 4 days). Plasma samples were pooled within each treatment group, and separated by FPLC using two serially connected Superose 6 columns (Pharmacia Biotech Inc.). Cholesterol (panel A) and triglyceride (panel B) levels were determined in 0.5 ml fractions.

[4] = HDL particle size profiles by Gradient Gel Electrophoresis (GGE) of pooled hamster plasma; type: in vivo; details: hamsters, 20 mg/kg/day, 4 days
Protocol: Hamsters were treated with either vehicle or Compound A as described above (20 mg/kg/day, 4 days, n=6). Plasma samples were collected and pooled for each group. An aliquot of pooled plasma was analyzed using GGE as described in Blanche et al. (1981) BBA 665: 408-419.

## CCSc1nnc(Sc2nccnc2C#N)s1 [Compound A]
LCAT
  LCAT activity in LCAT-deficient plasma: No LCAT activity was detected
LCAT mutant H377A
  LCAT activity of H377A mutant: No activity was observed
LCAT mutant S181A
  LCAT activity of S181A mutant: No activity was observed
LCAT C184A mutant
  Response of C184A mutant to compound (LCAT activation): able to respond to the treatment in a dose dependent manner comparable to that of the wild type enzyme
LCAT C31A mutant
  Response of C31A mutant to compound (LCAT activation): failed to be activated
LCAT enzyme
  Plasma LCAT enzyme activity: increase LCAT enzyme activity in a dose dependent manner
[1]
  HDL cholesterol levels: increases HDL cholesterol levels
[2]
  HDL levels: increases HDL levels
  apoB-containing lipoprotein (LpB cholesterol = TC minus HDL): decreases apoB-containing lipoprotein
[3]
  HDL particle size (FPLC): increases HDL particle size
  HDL-Ch levels (FPLC): increases HDL-Ch levels
  TG levels in the VLDL fraction (FPLC): decrease TG levels in the VLDL fraction
[4]
  HDL particle size (GGE): increase of HDL particle size
[4]; GGE
  HDL particle size profile, HDL subclass 2a: 39
  HDL particle size profile, HDL subclass 2b: 56
  HDL particle size profile, HDL subclass 3a: 3
  HDL particle size profile, HDL subclass 3b: 1
  HDL particle size profile, HDL subclass 3c: 1
